Drawing on patent US11014898B1, “Benzothiazepine compounds and their use as bile acid modulators” (Albireo AB, priority 2020, dated 2021), this text covers IC50, Papp A→B and Papp B→A for ten compounds.

In one series the target is T1, Human IBAT (Homo sapiens, UniProt Q12908).
T1 construct: expressed in transfected cells; cells kept under Puromycin selection
T1 sequence (Q12908 1-348): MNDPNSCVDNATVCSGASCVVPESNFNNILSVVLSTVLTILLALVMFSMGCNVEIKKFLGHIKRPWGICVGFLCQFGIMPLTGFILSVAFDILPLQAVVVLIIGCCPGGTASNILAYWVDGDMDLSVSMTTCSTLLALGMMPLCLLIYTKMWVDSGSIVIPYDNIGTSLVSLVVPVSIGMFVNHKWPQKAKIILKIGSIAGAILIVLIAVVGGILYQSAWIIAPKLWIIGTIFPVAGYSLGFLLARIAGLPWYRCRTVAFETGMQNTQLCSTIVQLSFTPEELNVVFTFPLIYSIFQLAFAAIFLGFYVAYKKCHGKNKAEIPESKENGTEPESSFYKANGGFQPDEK
The series can be described thus: IBAT (h) assay: 3H-taurocholic acid uptake in human IBAT-overexpressing cells. As to conditions: 0.25 μM 3H-taurocholic acid and 5 μM cold taurocholic acid, 20 minutes, read-out: hIBAT IC50. Format: cell-based. How it is done:
10,000 cells (Human or Mouse IBAT-overexpressing cells) were seeded in 96-wells plate (Corning CLS3809) in 200 μL MEM-alpha medium (Gibco 12571-063) supplemented with 10% FBS (Gibco 10438026) containing Puromycin (Gibco A1113803) (10 μg/mL) and incubated at 37° C. in 5% CO2 for 48 hours. After incubation, media was decanted from the wells and cells were washed two times with 300 μL of basal MEM-alpha medium (FBS-free). After decanting basal MEM-alpha medium each time, plates were tapped against paper towel to ensure maximum removal of residual media. Test inhibitor dilutions (highest test concentration being 10 μM, 3-fold serial dilution, 10 points) prepared in DMSO (Sigma D2650) were added in incubation mix (maintaining 0.2% final DMSO concentration) containing 0.25 μM 3H-taurocholic acid (ARC ART-1368) and 5 μM of cold taurocholic acid (Sigma T4009). 50 μL of incubation mix containing test inhibitors was then added to the wells (in duplicate) and the plates were incubated for 20 minutes in a CO2 incubator at 37° C. After incubation, the reaction was stopped by keeping the plates on ice water mix for 2-3 minutes and then the incubation mix was aspirated completely from the wells. The wells were washed two times with 250 μL of chilled unlabelled 1 mM taurocholic acid dissolved in HEPES (Gibco 15630080)-buffered (10 mM) HBSS (Gibco 14175079) (pH 7.4). The plates were tapped against a paper towel after every wash to ensure maximum removal of blocking buffer.
100 μL of MicroScint-20 (PerkinElmer 6013621) was added to the wells and kept overnight at room temperature before reading the plates in TopCount NXT™ Microplate Scintillation and Luminescence Counter from PerkinElmer under 3H Test protocol (set at 120 seconds reading time per well).
All test compounds were provided in powder form at room temperature. 10 mM DMSO stocks of the test compounds were prepared, aliquoted and stored at −20° C. From the 10 mM DMSO stock of the compounds, a 3-fold serial dilution in DMSO was prepared to get a total of 10 dilutions of the test compounds. 0.5 μL of this dilution in DMSO was added to 250 μL of FBS-free basal media containing 3H-taurocholic acid and cold taurocholic acid to prepare the incubation mixture.

The nature of series [1]: Bidirectional permeability assay (Caco-2 cells). Format: in vitro ADME. As to conditions: human, Caco-2, pH 7.4, 10 μM in FaSSIF buffer, 120 minutes at 37° C.; for Papp A→B at 120 min, 10 μM: absorptive direction (A2B); for Papp B→A at 120 min, 10 μM: secretory direction (B2A). How it is done: Caco-2 cells (Evotec) were seeded at a density of 70,000 cells/well in Millicell® 24-well cell culture insert plates and maintained in an incubator (37° C., 5% CO2, 95% RH) for 21 days with media change on alternate days.
Stock solutions (10 mM) of the test compounds, atenolol (low permeability marker), propranolol (high permeability marker) and digoxin (substrate for P-gp transport pathway) were prepared in dimethylsulfoxide (DMSO). An intermediate stock solution (1 mM) was prepared by diluting 10 μL of 10 mM master stock solution with 90 μL of neat DMSO. A working stock solution (10 μM) was prepared by diluting 50 μL of 1 mM with 4950 μL of FaSSIF buffer. Post addition of compounds to the FaSSIF, samples were subjected to sonication for 2 hours, and centrifuged at 4000 RPM for 30 minutes at 37° C. The 4 mL of resultant supernatant was directly used in the assay. The final DMSO concentration in the transport experiments was 1%.
On the day of assay, Caco-2 monolayers were washed twice with transport buffer (HBSS, pH 7.4) and pre-incubated for 30 min (37° C., 5% CO2, 95% RH) in an incubator. The electrical resistance of the monolayers was measured with a Millicell®-ERS system. Monolayers with trans-epithelial electrical resistance (TEER) values greater than 350 ohm·cm^2 were selected for the assay.
The assay was conducted in absorptive direction (A2B) and secretory (B2A) directions. Transport experiments were initiated by addition of transport assay buffer (FaSSIF buffer prepared in HBSS) consisting of compounds to the donor compartment (apical chamber A-B; basolateral chamber B-A) in duplicate (n=2) wells. Drug free HBSS buffer (pH 7.4) containing 1% bovine serum albumin (BSA) was introduced to the receiver (A-B-basolateral; B-A-Apical) compartments. The volumes of apical and basolateral compartments were 0.4 and 0.8 mL, respectively. After adding dosing solution, plates were incubated in an incubator for 120 minutes at 37° C. After 120 minutes, donor and receiver samples were collected and matrix matched (1:1, 30 μL study sample+30 μL blank buffer) with the opposite buffer. Dosing samples matrix matched (1:1, 30 μL study sample+30 μL blank buffer) with the opposite buffer. Samples were processed by adding acetonitrile containing internal standard (60 μL study sample+200 μL acetonitrile containing internal standard-Tolbutamide, 500 ng/mL). Samples were vortexed and centrifuged at 4000 rpm for 10 minutes. The obtained supernatant (100 μL) was diluted with 100 μL of water and transferred to fresh 96 well plates. The concentration of compounds in the samples was analyzed by liquid chromatography tandem mass spectrometry (LC-MS/MS) method using discovery grade bio-analytical method, as applicable.
The mean apparent permeability (Papp×10^−6 cm/sec) of the test compounds, atenolol, propranolol and digoxin were calculated as follows:
where dq/dt=rate of transport (rate of transport of compound in the receiver compartment), C0=initial concentration in the donor compartment, A=surface area of the effective filter membrane.

Each structure is given as a SMILES string.

By IC50 is commonly meant the concentration that gives 50% inhibition. With `CCCCC1(CC)CN(c2ccccc2)c2cc(N(C)C)c(OCC(=O)O)cc2S(=O)(=O)C1` (racemic) [Example 7, 2-((3-butyl-7-(dimethylamino)-3-ethyl-1,1-dioxido-5-phenyl-2,3,4,5-tetrahydro-1,5-benzothiazepin-8-yl)oxy)acetic Acid], the IC50 at Human IBAT was 14 nM. On the same count and under the same terms, next, `CCCCC1(CC)CN(c2ccc(F)cc2)c2cc(SC)c(OCC(=O)O)cc2S(=O)(=O)C1` (racemic) [Example 14, 2-((3-butyl-3-ethyl-5-(4-fluorophenyl)-7-(methylthio)-1,1-dioxido-2,3,4,5-tetrahydro-1,5-benzothiazepin-8-yl)oxy)acetic Acid]: 6.4 nM; `CCCCC1(CC)CN(c2ccc(O)cc2)c2cc(SC)c(OCC(=O)O)cc2S(=O)(=O)C1` (racemic) [Example 17, 2-((3-butyl-3-ethyl-5-(4-hydroxyphenyl)-7-(methylthio)-1,1-dioxido-2,3,4,5-tetrahydro-1,5-benzothiazepin-8-yl)oxy)acetic Acid]: 19 nM.

On to `CCCCC1(CC)CN(c2ccccc2)c2cc(N(C)C)c(OCC(=O)O)cc2S(=O)(=O)C1` (single isomer, unassigned) [Example 9, 2-((3-butyl-7-(dimethylamino)-3-ethyl-1,1-dioxido-5-phenyl-2,3,4,5-tetrahydro-1,5-benzothiazepin-8-yl)oxy)acetic Acid], for which the IC50 at Human IBAT came out at 217 nM. Usually Papp A→B stands for how fast a substance crosses the layer from the apical side. Higher therefore signals fast passage. As a reminder, the Papp B→A is how fast a substance crosses the layer from the basolateral side. In the case of `CCCCC1(CC)CN(c2ccc(F)cc2)c2cc(SC)c(OCC(=O)O)cc2S(=O)(=O)C1` (single isomer, unassigned) [Example 15, 2-((3-butyl-3-ethyl-5-(4-fluorophenyl)-7-(methylthio)-1,1-dioxido-2,3,4,5-tetrahydro-1,5-benzothiazepin-8-yl)oxy)acetic acid], the IC50 at Human IBAT stood at 2.4 nM. Moreover, in series [1], the Papp A→B at 120 min, 10 μM was 8.7 ×10⁻⁶ cm/s and the Papp B→A at 120 min, 10 μM was 12.9 ×10⁻⁶ cm/s. For the compound `CCCCC1(CC)CN(c2ccc(F)cc2)c2cc(SC)c(OCC(=O)O)cc2S(=O)(=O)C1` (single isomer, unassigned) [Example 16, 2-((3-butyl-3-ethyl-5-(4-fluorophenyl)-7-(methylthio)-1,1-dioxido-2,3,4,5-tetrahydro-1,5-benzothiazepin-8-yl)oxy)acetic acid], at Human IBAT, the IC50 was 64 nM.

For the compound `CCCCC1(CC)CN(c2ccc(O)cc2)c2cc(SC)c(OCC(=O)O)cc2S(=O)(=O)C1` (single isomer, unassigned) [Example 19, 2-((3-butyl-3-ethyl-5-(4-hydroxyphenyl)-7-(methylthio)-1,1-dioxido-2,3,4,5-tetrahydro-1,5-benzothiazepin-8-yl)oxy)acetic Acid], the IC50 at Human IBAT came to 705 nM. As to `CCCCC1(CCCC)CN(c2ccccc2)c2cc(N(C)C)c(OCC(=O)O)cc2S(=O)(=O)C1` [Example 1, 2-((3,3-dibutyl-7-(dimethylamino)-1,1-dioxido-5-phenyl-2,3,4,5-tetrahydro-1,5-benzothiazepin-8-yl)oxy)acetic Acid], the IC50 on Human IBAT was determined as 24 nM. For the same compound, in series [1], the Papp A→B at 120 min, 10 μM was found to be 3.2 ×10⁻⁶ cm/s and the Papp B→A at 120 min, 10 μM is 9.4 ×10⁻⁶ cm/s. Turning to `CCCCC1(CCCC)CN(c2ccc(OC)cc2)c2cc(SC)c(OCC(=O)O)cc2S(=O)(=O)C1` [Example 2, 2-((3,3-dibutyl-5-(4-methoxyphenyl)-7-(methylthio)-1,1-dioxido-2,3,4,5-tetrahydro-1,5-benzothiazepin-8-yl)oxy)acetic Acid], the IC50 at Human IBAT turned out to be 38 nM. For the same compound, in series [1], the Papp A→B at 120 min, 10 μM was determined as 4.3 ×10⁻⁶ cm/s and the Papp B→A at 120 min, 10 μM was 6.6 ×10⁻⁶ cm/s.

For the compound `CCCCC1(CC)CN(c2ccc(OC)cc2)c2cc(SC)c(OCC(=O)O)cc2S(=O)(=O)C1` (stereo not shown) [Example 18, 2-((3-butyl-3-ethyl-5-(4-methoxyphenyl)-7-(methylthio)-1,1-dioxido-2,3,4,5-tetrahydro-1,5-benzothiazepin-8-yl)oxy)acetic Acid], the IC50 on Human IBAT was found to be 17 nM.
